The source of these data is patent US20040043043A1, “Preparation of emulsions and concentrates thereof” (priority 2000, published 2004).

Data set [1] can be described thus: Chemical stability study: vitamin contents on storage at 20 °C/ambient RH. The data set is classed as physicochemical. The settings on record: Example 1 syrup; for Degraded: 18 months at 20 °C/ambient RH, '+' = increase; for Recovery (initial versus nominal): two batches. The method, then:
A stability study was carried out in order to investigate the chemical stability of the liquid multivitamin product. The product was manufactured according to the protocol set out in Example 1. Two production batches were prepared and subjected to a stability study. The following sampling times were used:
20° C./ambient 0, 3, 6, 12 and 18 months Relative Humidity (RH):
The following results for the vitamin contents after 18 months were obtained for the two production batches respectively at 20° C./ambient RH: […]

Experiment in data set [2]: as above
The data set is classed as physicochemical. The settings on record: for Degraded / Content after 18 months / Recovery (initial versus nominal): Example 4 syrup; for Degraded: 18 months at 20 °C/ambient RH, '+' = increase; for Recovery (initial versus nominal): two batches; for Initial content: Example 4 vitamin and mineral syrup.

For `O=C1O[C@H]([C@@H](O)CO)C(O)=C1O` [Ascorbic acid], the values for the Degraded in data set [1] and in data set [2] were 20% and 32.8%, respectively. Besides, the “Vitamin content after 18 months” value in data set [1] (batch 1, 20 °C/ambient RH) came to 42.8 mg/10 ml; in data set [1] (batch 2, 20 °C/ambient RH) it was 43.6 mg/10 ml. The Initial vitamin content is 54.4 mg/10 ml in data set [1] (production batch 1, time 0) and 55.3 mg/10 ml in data set [1] (production batch 2, time 0). In addition, the “Recovery (initial versus nominal)” value in data set [1] is 97.4%; in data set [2], 93.8%. In addition, the “Content after 18 months” value in data set [2] (batch 1, 20 °C/ambient RH) was determined as 35.7 mg/5 ml; in data set [2] (batch 2, 20 °C/ambient RH), 34.9 mg/5 ml. Also, the Initial content is recorded as 53.0 mg/5 ml in data set [2] (batch 1, time 0) and 52.0 mg/5 ml in data set [2] (batch 2, time 0).

For the compound `CC1=C(/C=C/C(C)=C/C=C/C(C)=C/C=C/C=C(C)/C=C/C=C(C)/C=C/C2=C(C)CCCC2(C)C)C(C)(C)CCC1` [Betacaroten], the Degraded entry in data set [2] is on record as “+6.3%”. The “Content after 18 months” value is reported as 2315 IU/5 ml in data set [2] (batch 1, 20 °C/ambient RH) and 2279 IU/5 ml in data set [2] (batch 2, 20 °C/ambient RH). Also, the “Recovery (initial versus nominal)” value in data set [2] was found to be 110.8%. The Initial content in data set [2] (batch 1, time 0) stood at 2172 IU/5 ml; in data set [2] (batch 2, time 0) it was 2148 IU/5 ml.

In the case of `O=C(O)CCCC[C@@H]1SC[C@@H]2NC(=O)N[C@@H]21` [Biotin], the Degraded in data set [2] is recorded as 9.8%. Besides, the “Content after 18 months” value in data set [2] (batch 1, 20 °C/ambient RH) was found to be 103 μg/5 ml; in data set [2] (batch 2, 20 °C/ambient RH), 100 μg/5 ml. In data set [2], the “Recovery (initial versus nominal)” value stood at 102.3%. Moreover, the Initial content is listed as 109 μg/5 ml in data set [2] (batch 1, time 0) and 116 μg/5 ml in data set [2] (batch 2, time 0).

In the case of `C=C1CC[C@H](O)C/C1=C/C=C1\CCC[C@]2(C)[C@@H]([C@H](C)CCCC(C)C)CC[C@@H]12` [Cholecalciferol], the Degraded in data set [1] is 10%; in data set [2] it was “+2.5%”. The “Vitamin content after 18 months” value in data set [1] (batch 1, 20 °C/ambient RH) was 7.3, 7.3 μg/10 ml; in data set [1] (batch 2, 20 °C/ambient RH) it was 7.3, 7.3 μg/10 ml. In addition, the Initial vitamin content was found to be 8.0 μg/10 ml in data set [1] (production batch 1, time 0) and 8.1 μg/10 ml in data set [1] (production batch 2, time 0). Also, the “Recovery (initial versus nominal)” value is 97.6% in data set [1] and 92.2% in data set [2]. Moreover, the “Content after 18 months” value in data set [2] (batch 1, 20 °C/ambient RH) amounted to 519 IU/5 ml; in data set [2] (batch 2, 20 °C/ambient RH), 502 IU/5 ml. For the same compound, the Initial content turned out to be 502 IU/5 ml in data set [2] (batch 1, time 0) and 494 IU/5 ml in data set [2] (batch 2, time 0).

Turning to `Cc1c(C)c2c(c(C)c1O)CC[C@@](C)(CCC[C@H](C)CCC[C@H](C)CCCC(C)C)O2` [D-α-tocopherol], the Degraded was 2% in data set [1] and 4.0% in data set [2]. Moreover, the “Vitamin content after 18 months” value came out at 6.1 mg/10 ml in data set [1] (batch 1, 20 °C/ambient RH) and 6.2 mg/10 ml in data set [1] (batch 2, 20 °C/ambient RH). For the same compound, the Initial vitamin content worked out at 6.2 mg/10 ml in data set [1] (production batch 1, time 0) and 6.3 mg/10 ml in data set [1] (production batch 2, time 0). Further, the “Recovery (initial versus nominal)” value in data set [1] is recorded as 99.2%; in data set [2], 103.8%. Also, the “Content after 18 months” value amounted to 12.0 IU/5 ml in data set [2] (batch 1, 20 °C/ambient RH) and 11.9 IU/5 ml in data set [2] (batch 2, 20 °C/ambient RH). For the same compound, the Initial content is 12.5 IU/5 ml in data set [2] (batch 1, time 0) and 12.4 IU/5 ml in data set [2] (batch 2, time 0).

`Nc1nc2ncc(CNc3ccc(C(=O)N[C@@H](CCC(=O)O)C(=O)O)cc3)nc2c(=O)[nH]1` [Folic acid]: the Degraded in data set [1] was found to be 21%; in data set [2], 7.9%. The “Vitamin content after 18 months” value worked out at 71.4 μg/10 ml in data set [1] (batch 1, 20 °C/ambient RH) and 72.5 μg/10 ml in data set [1] (batch 2, 20 °C/ambient RH). Also, the Initial vitamin content is 92.1 μg/10 ml in data set [1] (production batch 1, time 0) and 92.2 μg/10 ml in data set [1] (production batch 2, time 0). Moreover, the “Recovery (initial versus nominal)” value is reported as 102.4% in data set [1] and 96.8% in data set [2]. Further, the “Content after 18 months” value is 255 μg/5 ml in data set [2] (batch 1, 20 °C/ambient RH) and 244 μg/5 ml in data set [2] (batch 2, 20 °C/ambient RH). Moreover, the Initial content is on record as 276 μg/5 ml in data set [2] (batch 1, time 0) and 266 μg/5 ml in data set [2] (batch 2, time 0).

With `NC(=O)c1cccnc1` [Nicotinamide], the values for the Degraded in data set [1] and in data set [2] were 4% and 4.7%, respectively. In addition, the “Vitamin content after 18 months” value in data set [1] (batch 1, 20 °C/ambient RH) is listed as 11.6 mg/10 ml; in data set [1] (batch 2, 20 °C/ambient RH) it was 11.9 mg/10 ml. Also, the Initial vitamin content worked out at 12.2 mg/10 ml in data set [1] (production batch 1, time 0) and 12.3 mg/10 ml in data set [1] (production batch 2, time 0). Besides, the entries for the “Recovery (initial versus nominal)” value in data set [1] and in data set [2] were 97.2% and 100.8%, respectively. Besides, the “Content after 18 months” value came to 18.5 mg/5 ml in data set [2] (batch 1, 20 °C/ambient RH) and 18.4 mg/5 ml in data set [2] (batch 2, 20 °C/ambient RH). The Initial content was determined as 19.5 mg/5 ml in data set [2] (batch 1, time 0) and 19.2 mg/5 ml in data set [2] (batch 2, time 0).

For `CC(C)(CO)[C@@H](O)C(=O)NCCC(=O)O` [Pantothenic acid], the Degraded stood at 16% in data set [1] and 11.1% in data set [2]. Besides, the “Vitamin content after 18 months” value is reported as 3.6, 3.6 mg/10 ml in data set [1] (batch 1, 20 °C/ambient RH) and 3.6, 3.6 mg/10 ml in data set [1] (batch 2, 20 °C/ambient RH). Moreover, the Initial vitamin content stood at 4.3 mg/10 ml in data set [1] (production batch 1, time 0) and 4.4 mg/10 ml in data set [1] (production batch 2, time 0). Also, the “Recovery (initial versus nominal)” value in data set [1] is 98.9%; in data set [2] it was 101.5%. Moreover, the “Content after 18 months” value is recorded as 9.2, 9.2 mg/5 ml in data set [2] (batch 1, 20 °C/ambient RH) and 9.2, 9.2 mg/5 ml in data set [2] (batch 2, 20 °C/ambient RH). The Initial content in data set [2] (batch 1, time 0) is 10.4 mg/5 ml; in data set [2] (batch 2, time 0), 10.3 mg/5 ml.

Turning to `Cc1ncc(CO)c(CO)c1O` [Pyridoxine], the figures for the Degraded entry in data set [1] and in data set [2] were “+2%” and “+1.1%”, respectively. Besides, the “Vitamin content after 18 months” value in data set [1] (batch 1, 20 °C/ambient RH) came out at 1.25 mg/10 ml; in data set [1] (batch 2, 20 °C/ambient RH), 1.24 mg/10 ml. The Initial vitamin content in data set [1] (production batch 1, time 0) is 1.21 mg/10 ml; in data set [1] (production batch 2, time 0), 1.22 mg/10 ml. The results for the “Recovery (initial versus nominal)” value in data set [1] and in data set [2] were 96.4% and 99.4%, respectively. Besides, the “Content after 18 months” value in data set [2] (batch 1, 20 °C/ambient RH) worked out at 0.89 mg/5 ml; in data set [2] (batch 2, 20 °C/ambient RH), 0.88 mg/5 ml. The Initial content is 0.88 mg/5 ml in data set [2] (batch 1, time 0) and 0.87 mg/5 ml in data set [2] (batch 2, time 0).

For the compound `CC1=C(/C=C/C(C)=C/C=C/C(C)=C/CO)C(C)(C)CCC1` [Retinol], the Degraded in data set [1] is 16%; in data set [2], 13%. Besides, the “Vitamin content after 18 months” value came to 518 μg/10 ml in data set [1] (batch 1, 20 °C/ambient RH) and 525 μg/10 ml in data set [1] (batch 2, 20 °C/ambient RH). In addition, the Initial vitamin content in data set [1] (production batch 1, time 0) amounted to 623 μg/10 ml; in data set [1] (production batch 2, time 0), 628 μg/10 ml. Also, the “Recovery (initial versus nominal)” value in data set [1] worked out at 113%; in data set [2], 110.0%. The “Content after 18 months” value was 1869 IU/5 ml in data set [2] (batch 1, 20 °C/ambient RH) and 1862 IU/5 ml in data set [2] (batch 2, 20 °C/ambient RH). Also, the Initial content in data set [2] (batch 1, time 0) is reported as 2145, 2145 IU/5 ml; in data set [2] (batch 2, time 0), 2145, 2145 IU/5 ml.

`Cc1cc2nc3c(=O)[nH]c(=O)nc-3n(C[C@H](O)[C@H](O)[C@H](O)CO)c2cc1C` [Riboflavine]: the Degraded entry in data set [1] is on record as “+2%”; in data set [2], 4.0%. The “Vitamin content after 18 months” value is reported as 1.08 mg/10 ml in data set [1] (batch 1, 20 °C/ambient RH) and 1.09 mg/10 ml in data set [1] (batch 2, 20 °C/ambient RH). Besides, the Initial vitamin content amounted to 1.05 mg/10 ml in data set [1] (production batch 1, time 0) and 1.06 mg/10 ml in data set [1] (production batch 2, time 0). For the same compound, the “Recovery (initial versus nominal)” value in data set [1] is 95.9%; in data set [2] it was 93.9%. In addition, the “Content after 18 months” value is listed as 1.19, 1.19 mg/5 ml in data set [2] (batch 1, 20 °C/ambient RH) and 1.19, 1.19 mg/5 ml in data set [2] (batch 2, 20 °C/ambient RH). Also, the Initial content in data set [2] (batch 1, time 0) is listed as 1.25 mg/5 ml; in data set [2] (batch 2, time 0) it was 1.23 mg/5 ml.

For the compound `Cc1ncc(C[n+]2csc(CCO)c2C)c(N)n1` [Thiamine], the results for the Degraded in data set [1] and in data set [2] were 8% and 7.9%, respectively. Besides, the “Vitamin content after 18 months” value is given as 0.88 mg/10 ml in data set [1] (batch 1, 20 °C/ambient RH) and 0.89 mg/10 ml in data set [1] (batch 2, 20 °C/ambient RH). In addition, the Initial vitamin content in data set [1] (production batch 1, time 0) came out at 0.96 mg/10 ml; in data set [1] (production batch 2, time 0) it was 0.97 mg/10 ml. Also, the figures for the “Recovery (initial versus nominal)” value in data set [1] and in data set [2] were 97.5% and 96.9%, respectively. Further, the “Content after 18 months” value is given as 1.16, 1.16 mg/5 ml in data set [2] (batch 1, 20 °C/ambient RH) and 1.16, 1.16 mg/5 ml in data set [2] (batch 2, 20 °C/ambient RH). Besides, the Initial content is given as 1.27 mg/5 ml in data set [2] (batch 1, time 0) and 1.25 mg/5 ml in data set [2] (batch 2, time 0).

Regarding `[Zn]` [Zinc], the Degraded in data set [2] is on record as 1.2%. The “Content after 18 months” value in data set [2] (batch 1, 20 °C/ambient RH) came to 8.4 mg/5 ml; in data set [2] (batch 2, 20 °C/ambient RH), 8.2 mg/5 ml. In addition, the “Recovery (initial versus nominal)” value in data set [2] is 102.5%. The Initial content is recorded as 8.2, 8.2 mg/5 ml in data set [2] (batch 1, time 0) and 8.2, 8.2 mg/5 ml in data set [2] (batch 2, time 0).

Compound Vitamin B12 had a Degraded in data set [2] of 16.7%. Further, the “Content after 18 months” value in data set [2] (batch 1, 20 °C/ambient RH) was determined as 9.7 μg/5 ml; in data set [2] (batch 2, 20 °C/ambient RH) it was 9.8 μg/5 ml. Moreover, the “Recovery (initial versus nominal)” value in data set [2] is recorded as 104.5%. Besides, the Initial content in data set [2] (batch 1, time 0) is reported as 11.6 μg/5 ml; in data set [2] (batch 2, time 0) it was 11.8 μg/5 ml.
